Measured values reported in patent US7670613B2, “Androgen modulators” (Pfizer Inc., priority 2004, dated 2010).

Experiments:
male Syrian hamsters = experiment: Animal model for inhibition of sebum production (hamster ear); type: in vivo, Syrian hamster; conditions: topical 3.0 w/v %; for % CE reduction: cholesterol ester vs vehicle control; for % CE reduction / % WE reduction: twice daily, five days a week, 4 weeks, right ear; for Sum of WE & CE: sum of % WE and % CE reduction; for % WE reduction: wax ester vs vehicle control
Protocol: Animal Model for Inhibition of Sebum Production
Luderschmidt et al describes an animal model for testing whether compounds are capable of modulating sebum secretion. Arch. Derm. Res. 258, 185-191 (1977). This model uses male Syrian hamsters, whose ears contain sebaceous glands. The product of Example 14 was screened in this model.
Testing for sebum inhibition was carried out in the following manner. Male Syrian hamsters aged 9 to 10 weeks were introduced into the laboratory environment and acclimated for 2 weeks prior to use in the study. Each group consisted of 5 animals and run in parallel with vehicle and positive controls. Prior to administration, a sufficient quantity each compound was dissolved in 1 mL of a solvent consisting of ethanol, and propylene glycol (70/30% v/v) to achieve a final concentration of 3.0 w/v %.
Animals were dosed topically twice daily, five days a week, for 4 weeks. Each dose consisted of 25 micro liters of vehicle control or drug. The dose was applied to the ventral surfaces of both the right and left ears. All animals were sacrificed approximately 18-24 hours after the final dose. The right ears were collected from each animal and used for sebum analysis.
The ears were prepped for HPLC analysis in the following manner. One 8 mm distal biopsy punch was taken, just above the anatomical “V” mark in the ear to normalize the sample area. The punch was pulled apart. The ventral biopsy surface (the area where the topical dose was directly applied to the sebaceous glands) was retained for testing and the dorsal surface of the biopsy punch was discarded.
Tissue samples were blown with N2 gas and stored at −80° C. under nitrogen until HPLC analysis. In addition to ear samples, an aliquot of each drug and vehicle (at least 250 ul) was also stored at −80° C. for inclusion in the HPLC analysis.
HPLC analysis was carried out on an extract of the tissue sample. Tissue samples were contacted with 3 ml of solvent (a 4:1 admixture of 2,2,4-trimethylpentane and isopropyl alcohol). The mixture was shaken for 15 minutes and stored overnight at room temperature, protected from light. The next morning 1 milliliter of water was added to the sample and shaken for 15 minutes. The sample was then centrifuged at approximately 1500 rpm for 15 minutes. Two ml of the organic phase (top layer) was transferred to a glass vial, dried at 37° C., under nitrogen, for approximately 1 hour, and then lyophilized for approximately 48 hours. The samples were then removed from the lyophilizer and each vial was reconstituted with 600 μl of solvent A (trimethylpentane/tetrahydrofuran (99:1). The samples were then recapped and vortexed for 5 minutes.
200 μl of each sample was then transferred to a pre-labeled 200 μl HPLC vial with 200 μL glass inserts. The HPLC vials were placed in the autosampler tray for the Agilent 1100 series HPLC unit. The Agilent 1100 HPLC system consisted of a thermostated autosampler, a quarternary pump, a column heater, and an A/D interface module. All components were controlled by Agilent ChemStation software. A Waters Spherisorb S3W 4.6×100 mm analytical column was maintained at 30° C. by the Agilent column heater unit. The HPLC autosampler was programmed to maintain the sample temperature at 20 C. throughout the run.
10 uL of each sample was injected in triplicate into the column. Two solvents were used for the solvent gradient. Solvent A was an admixture of trimethylpentane and tetrahydrofuran (99:1). Solvent B was ethylacetate. The gradient utilized is described in the table below: […]
The Sedex 75 Evaporative Light Scattering Detector (ELSD) was operated at 45° C. with a gain of 5, and N2 pressure maintained at 3.1 bar. Analog signal obtained by the instrument was sent to the Agilent A/D interface module where it was converted to a digital output. The conversion was based on a 10000 mAU/volt set point and the data rate was set at 10 Hz (0.03 min). […]

male C3H/HeN mice = experiment: Modified telogen conversion assay; type: in vivo, mouse; conditions: topical 1% and 3% w/v, twice daily for 4 weeks, observed 35 days or longer
Excerpt: The telogen conversion assay measures the potential of a compound to convert the resting stage of the hair growth cycle (“telogen”) to the active stage of the hair growth cycle (“anagen”) in mice. This assay takes advantage of the fact that the fur (i.e. hair) of 7-week-old C3H/HeN mice is in the telogen phase. This phase continues until about 75 days of age. In this assay, selected areas of the mice are shaved, contacted with a test agent, or a control, and the difference in the rate of hair growth is measured (i.e. induction of the anagen phase). The first sign of anagen is the darkening of skin color as melanocytes in the follicles start to synthesize melanin, in preparation for the production of pigmented hairs. This model has a number of advantages. This includes the ready availability of female CH3HeN mice, the ability to screen large numbers of compounds quickly, and the ease of housing and handling such animals.
It has been discovered that male C3H/HeN mice may be used in the telogen conversion assay, when evaluating anti-androgen test compounds. Thus, the model relates to a modification of the existing telogen conversion assay. […]
The treatment area was observed and graded every other day for signs of hair growth. The hair growth response was quantified by recording, for each animal, the day on which signs of hair growth first appeared over the treated area. […]

| Structure (SMILES) | % CE reduction (male Syrian hamsters) [%] | Sum of WE & CE (male Syrian hamsters) | % WE reduction (male Syrian hamsters) [%] | Initiation of anagen (first signs of hair growth) versus vehicle control (male C3H/HeN mice) |
| --- | --- | --- | --- | --- |
| N#Cc1ccc(O[C@@H]2CCCC[C@H]2C#N)cc1C(F)(F)F (single isomer, unassigned) [Example 72, (trans)-(−)-4-(2-Cyano-cyclohexyloxy)-2-trifluoromethyl-benzonitrile] | 68 | 153 | 85 | – |
| N#Cc1ccc(O[C@@H]2CCCCC2C#N)cc1C(F)(F)F (stereo in doubt) [Example 14, -4-(2-Cyano-cyclohexyloxy)-2-trifluoromethyl-benzonitrile] | 84 | 179 | 95 | – |
| CC1CCCCC1Oc1ccc(C#N)c(C(F)(F)F)c1 (stereo not shown) [Example 8, 4-(2-Methyl-cyclohexyloxy)-2-trifluoromethyl-benzonitrile] | – | – | – | not initiated in either of the test groups prior to its occurrence in the vehicle control group |
